Results published in publication PMC4279401 (Oncotarget, 2014).
Where “and” joins values, the source holds several entries; their conditions need not be identical. Equal values may be shown once. Entries after “also recorded” stand apart in the source; their conditions may differ. Read-outs that look alike come from different tables or passages of the source.

Assays:
H3K79 methylation = assay: Western blot of histone methylation in MDA-MB231; assay type: cell-based, Human; settings: for effect on H3K79 methylation: in words
Experimental: (§1) Human cell lines BT549, MDA-MB231, MCF-7, MDA-MB157, HCC70, A549 and NB4 were obtained from the American Type Culture Collection (ATCC) and cultured using ATCC recommended conditions. Primary antibodies against H3K79me2, H3K27me3, H3K4me3, H3K36me2, H4K20me3, H3K9me-pan were purchased from Cell Signaling (Danvers, MA). siRNA experiments were performed by transfecting MDA-MB-231 cells with X-tremeGENE Transfection Reagent (Roche) and 10 nM siRNA (Invitrogen), according to the manufacturer's protocol.
(§2) 10^6 cells/well were incubated with increasing concentrations of a compound for 5 days and histones extracted with the EpiQuik™ Total Histone Extraction Kit (Epigentek) according to the manufacturer's protocol. Equal amounts of histones (2μg) were separated on SDS-PAGE and transferred to PVDF membranes. The blots were probed with primary antibodies, followed by anti-rabbit IgG (Thermo Scientific) secondary antibodies. For western blot analysis of MDA-MB231 xenograft tumors, tumors were harvested and frozen in liquid nitrogen. Histones were extracted and analyzed by immunoblotting as described above.

MDA-MB231 [1] = assay: Cell proliferation after DOT1L siRNA; assay type: cell-based, Human; settings: MDA-MB231, siRNA treatment, in words
Experimental: as §1, with “protocol. The sequences for DOT1L siRNA (Invitrogen) were: • siRNA-1: 634-[…]; • siRNA-2: 117-[…]; • siRNA-3: 104-[…]; • siRNA-4: 470-[…]; • siRNA-5: 120-[…]. • siRNA-`mock represents an siRNA that has no homology to any vertebrate transcriptome.” for “protocol.”

A549 = assay: Cell proliferation, MTT assay; assay type: cell-based, Human; settings: in words
MDA-MB231 cells [2] = assay: ALDEFLUOR assay; assay type: cell-based, Human; settings: in words
Experimental: (§3) 5 × 10^4 cells/well were incubated with compounds for 14 days. The ALDH activity of cells was determined by using the ALDEFLUOR assay kit (StemCell Technologies) according to the manufacturer's instructions. Combinations of fluorochrome-conjugated monoclonal antibodies against human CD44-FITC and CD24-PE were obtained from BD Biosciences. Primary antibodies or the respective isotype controls (BD Biosciences) were added to the cell suspension, according to the manufacturer's recommendation, and incubated at 4°C for 20 min. Dead cells were eliminated using propidium iodide (Sigma). The labelled cells were analyzed on a FACS Calibur (BD Biosciences/Applied Biosystems).

MDA-MB231 cells [3] = assay: Cell cycle analysis, propidium iodide FACS; assay type: cell-based, Human; settings: MDA-MB231, in words
Experimental: (§4) For apoptosis and cell cycle analysis, 10^5 cells/well were incubated with increasing concentrations of a compound for 7 or 10 days. Apoptosis was determined using the FITC Annexin V Apoptosis Detection Kit I (BD Bioscience) according to the manufacturer's protocol. Cells for cell cycle analysis were fixed in cold 70% ethanol at 4°C and stained with Propidium iodide (Sigma-Aldrich) (20 μg/ml) and RNase A (10 μg/ml) for 30min. Cells were analyzed using a FACS Calibur (BD Biosciences/Applied Biosystems) and data were processed using the program Flowjo (version7.6.5).

MDA-MB231 cells [4] = assay: CD44/CD24 flow cytometry; assay type: cell-based, Human; settings: MDA-MB231, FACS, in words
Experimental: as §3

MDA-MB231 cells [5] = assay: Quantitative PCR of EMT genes; assay type: cell-based, Human; settings: MDA-MB231, qPCR, dose-dependent, in words
Experimental: 10^4 cells/well were incubated with compounds for 14 days with media containing compounds replaced every 3-4 days. Total RNA was extracted from cells using RNeasy mini kit (Qiagen). 100-1000 ng of total RNA was reverse transcribed using iScript™ Reverse Transcription Supermix (Bio-Rad) according to the manufacturer's protocol. Quantitative real-time PCR was carried out using the RT^2 SYBR Green ROX™ qPCR Mastermix (Qiagen) according to the manufacturer's instructions. Measurements were performed in triplicate, using GAPDH or human 18S ribosomal RNA as a reference gene. The sequences of primers used are listed in the Supplementary Table. Real-time PCR was performed using the ABI Prism 7300 sequence detection system.

MDA-MB231 [6] = assay: Transwell cell migration assay; assay type: cell-based, Human; settings: MDA-MB231, Transwell with and without Matrigel, in words
Experimental: 5 × 10^4 cells/well were incubated with compounds for 14 days. For transwell migration assays, 5× 10^4 cells were plated in the top chamber with the non-coated membrane (24-well insert; pore size, […]; BD Biosciences). For invasion assays, 5× 10^4 cells were plated in the top chamber with Matrigel-coated membrane. The cells on the apical side of each insert were then scraped off after 22 h for both assays. The wells were washed with PBS, fixed with 100% methanol and stained with DAPI. Cells that had migrated to the basal side of the membrane were visualized and counted with a Nikon Eclipse TE2000-U microscope at 10×. Pictures of three random fields were obtained and the number of cells that had migrated quantified using ImageJ analysis software.

[7] = in vivo; cited from earlier work
MDA-MB231 cells [8] = assay: Microarray gene set enrichment analysis; assay type: cell-based, Human; settings: 1 at 5 μM, 2 at 10 μM, in words
Experimental: 10^5 cells/well were incubated with compounds for 14 days. Cells were lysed immediately in TRIzol® Reagent, frozen in liquid nitrogen, and shipped to Asuragen, Inc. (Austin, TX) for microarray experiments. RNA was isolated, amplified, and hybridized to Illumina Human HT-12 v4 arrays according to the manufacturer's protocol. Microarray data were log2 transformed and then normalized to have the same median for all the arrays. Moderate t-statistics were used to test if genes were differentially expressed between the groups of interest. Benjamini and Hochberg method was used to correct for multiple comparisons. R and Bioconductor packages were used for all the statistical analyses (http://cran.us.r-project.org/, http://www.bioconductor.org/). Gene set enrichment analysis was performed using GSEA software from Broad Institute (Boston, MA).

MDA-MB231 cells [9] = assay: Apoptosis, Annexin V FACS; assay type: cell-based, Human
Experimental: as §4

MCF-7 = assay: Cell proliferation, MTT assay; assay type: cell-based; settings: Homo sapiens
MDA-MB231 [10] = assay: Cell proliferation, MTT assay; assay type: cell-based; settings: Homo sapiens
[11] = system: methylation at H3K4, H3K9, H3K27, H3K36 and H4K20; assay: Western blot of methylation at other histone lysines in MDA-MB231; assay type: cell-based, Human; settings: at concentrations of <1 μM, in words
Experimental: as §2

[12] = system: MDA-MB231, BT549 and MCF-7 breast cancer cells; assay: Cell proliferation, MTT assay, DOT1L+ breast cancer cells; assay type: cell-based, Human; settings: Homo sapiens
BT549 = assay: Cell proliferation, MTT assay; assay type: cell-based; settings: Homo sapiens
H3K27 methylation [13] = assay: Western blot of histone methylation in MDA-MB231; assay type: cell-based; settings: Homo sapiens, MDA-MB-231, Fig. 4b, read-out: IC50 against H3K27 methylation
Experimental: as §2

EZH2 = settings: read-out: Ki against EZH2; cited from earlier work
[14] = biological target: other lysine methyltransferases; settings: read-out: Ki against other lysine methyltransferases; cited from earlier work
H3K27 methylation [15] = assay: Western blot of histone methylation in BT549; assay type: cell-based, Human
Experimental: as §2

siRNA-2: DOT1L siRNA (Invitrogen): 117-CGAUAAACAUCACGAUGCUGCUCAU (other strand not given here)
effect on H3K79 methylation (H3K79 methylation): considerably weaker inhibition
effect on cell proliferation (MDA-MB231 [1]): did not significantly affect the growth

CC(C)N(CCCNC(=O)Nc1ccc(C(C)(C)C)cc1)CC1OC(n2cnc3c(N)ncnc32)C(O)C1O (centres unmarked) [Compound 2, SYC-522]
activity against A549 cells (A549): negligible activity
ALDH+ cell population (MDA-MB231 cells [2]): considerably reduced
sub-G1 phase cell population (MDA-MB231 cells [3]): increased sub-G1 phase cell population; also recorded: moderately increased pre-G phase cell population
CD44+/CD24− cell population (MDA-MB231 cells [4]): significantly decreased
cell population expressing high levels of CD24 (MDA-MB231 cells [4]): considerably more cells expressed higher levels of CD24; also recorded: increased cell population
gene expression of E-cadherin (MDA-MB231 cells [5]): increase
gene expression of TGF-β, Snail and Zeb (MDA-MB231 cells [5]): significantly reduce
cell migration and invasion (MDA-MB231 [6]): reduced abilities of cell migration and invasion
pharmacokinetics [7]: poor pharmacokinetics with short plasma half-lives
genes whose expression is low in breast CSCs (GSEA) (MDA-MB231 cells [8]): upregulation
pro-proliferation genes in the PAM50 gene set (GSEA) (MDA-MB231 cells [8]): downregulation
apoptosis (MDA-MB231 cells [9]; MDA-MB231, 2 μM, in words): negligible amount of apoptosis
apoptotic rate (MDA-MB231 cells [9]; MDA-MB231, 10 μM): 7.8% and ~ 8%

siRNA-1: DOT1L siRNA (Invitrogen): 634-CGCGAGUUCAGGAAGUGGAUGAAAU (other strand not given here)
effect on H3K79 methylation (H3K79 methylation): significantly reduced H3K79 methylation
effect on cell proliferation (MDA-MB231 [1]): slowed down cell proliferation; also recorded: significantly inhibited cell proliferation

siRNA-3: DOT1L siRNA (Invitrogen): 104-CGCUGCCGGUCUACGAUAAACAUCA (other strand not given here)
effect on H3K79 methylation (H3K79 methylation): considerably weaker inhibition
effect on cell proliferation (MDA-MB231 [1]): did not significantly affect the growth

siRNA-4: DOT1L siRNA (Invitrogen): 470-CCCAGAUGAUUGAUGAGAUCAAGAU (other strand not given here)
effect on H3K79 methylation (H3K79 methylation): significantly reduced H3K79 methylation
effect on cell proliferation (MDA-MB231 [1]): inhibited cell proliferation

Nc1nccc2c1ncn2C1C=C(CO)C(O)C1O (centres unmarked) [Compound 4, 3-deazaneplanocin A]
EC50 (MCF-7; MCF7, 72 h, read-out: Anti-proliferative activity EC50): > 20 µM
EC50 (MCF-7; MCF7, 360 h, read-out: EC50, 15-day treatment): 0.48 µM
IC50 (H3K79 methylation; Homo sapiens, MDA-MB-231, read-out: IC50 of H3K79 methylation inhibition): ~0.05 µM
EC50 (MDA-MB231 [10]; MDA-MB-231, 72 h, read-out: Anti-proliferative activity EC50): > 20 µM
EC50 (MDA-MB231 [10]; MDA-MB-231, 360 h, read-out: EC50, 15-day treatment): 0.035 µM
inhibitory activity against methylation at H3K4, H3K9, H3K27, H3K36 and H4K20 [11]: no or negligible inhibitory activities; also recorded: negligible effects
EC50 ([12]; 72 h, read-out: EC50, 3-day treatment): > 20 µM
EC50 ([12]; 360 h, read-out: anti-proliferation EC50): 0.035 to 0.48 µM
EC50 (BT549; BT-549, 72 h, read-out: Anti-proliferative activity EC50): > 20 µM
EC50 (BT549; BT-549, 360 h, read-out: EC50, 15-day treatment): 0.065 µM
IC50 (H3K27 methylation [13]): > 6 µM

Nc1ncnc2c1ncn2[C@@H]1O[C@H](CSCC[C@H](N)C(=O)O)[C@@H](O)[C@H]1O [SAH, S-adenosyl-homocycteine]
Ki (EZH2): 7.5 µM
Ki [14]: > 1 µM

Cc1cc(C)c(CNC(=O)c2cc(-c3ccc(CN4CCOCC4)cc3)cc3c2cnn3C2CCCC2)c(=O)[nH]1 [Compound 5, EPZ005687]
EC50 (MCF-7; MCF7, 72 h, MCF-7, 3-day treatment, read-out: Anti-proliferative activity EC50): 28 µM
EC50 (MCF-7; MCF7, 360 h, MCF-7, 15-day treatment, read-out: Anti-proliferative activity EC50): 12 µM
selectivity of histone methylation inhibition (H3K27 methylation [15]; BT549, Western blot, in words): only inhibited H3K27 methylation
IC50 (H3K27 methylation [15]; Homo sapiens, BT-549, 5 days, breast cancer cells, Fig. 4d (BT549), read-out: IC50 of H3K27 methylation inhibition): ~0.05 µM
EC50 (MDA-MB231 [10]; MDA-MB-231, 72 h, MDA-MB231, 3-day treatment, read-out: Anti-proliferative activity EC50): 11 µM
EC50 (MDA-MB231 [10]; MDA-MB-231, 360 h, MDA-MB231, 15-day treatment, read-out: Anti-proliferative activity EC50): 13 µM
Ki (EZH2): 0.024 µM
EC50 ([12]; three breast cancer cells, regardless of the treatment durations, read-out: anti-proliferation EC50): 11 to 35 µM
EC50 (BT549; BT-549, 72 h, BT549, 3-day treatment, read-out: Anti-proliferative activity EC50): 34 µM
EC50 (BT549; BT-549, 360 h, BT549, 15-day treatment, read-out: Anti-proliferative activity EC50): 35 µM
